Molecules are shown by their SMILES.

The test addresses WDR5 (Homo sapiens (Human), UniProt P61964). In words: Surface Plasmon Resonance (SPR) assay, KD and residence time. The format is binding. To be noted: surface plasmon resonance (SPR); read-out: WDR5 binding affinity (KD). (SPR reads the build-up and loss of mass on a sensor chip optically.)
As a reminder, the Kd is the constant that tells how readily two partners part at equilibrium. In the case of `CC1CN(c2cc(F)c(-c3ccnc(N4CCOCC4)n3)cc2NC(=O)c2cn(C)c(=O)cc2C(F)F)CCN1C` (stereo in doubt) [Example 664, 4-(difluoromethyl)-N-[4-fluoro-5-(2-morpholin-4-ylpyrimidin-4-yl)-2-[(3R)-3,4-dimethylpiperazin-1-yl]phenyl]-1-methyl-6-oxopyridine-3-carboxamide], the dissociation constant Kd was 2.68 nM.
For `CC1CN(c2cc(F)c(-c3ccc(C(=O)NC(C)(C)CC(C)(C)C)c(F)c3F)cc2NC(=O)c2ccc(F)cc2C(F)(F)F)CCN1C` (stereo in doubt) [Example 666, 2,3-difluoro-4-[2-fluoro-5-[[4-fluoro-2-(trifluoromethyl)benzoyl]amino]-4-[(3R)-3,4-dimethylpiperazin-1-yl]phenyl]-N-(2,4,4-trimethylpentan-2-yl)benzamide] the value was 117 nM; for `CC1CN(c2cc(F)c(-c3ccc(C(N)=O)c(F)c3F)cc2NC(=O)c2ccc(F)cc2C(F)(F)F)CCN1C` (stereo in doubt) [Example 668, 2,3-difluoro-4-[2-fluoro-5-[[4-fluoro-2-(trifluoromethyl)benzoyl]amino]-4-[(3R)-3,4-dimethylpiperazin-1-yl]phenyl]benzamide], 18.3 nM.
In the case of `CC1CN(c2cc(F)c(-c3cccc(N4CCOCC4)n3)cc2NC(=O)c2cn(C)c(=O)cc2C(F)F)CCN1C` (stereo in doubt) [Example 672, 4-(difluoromethyl)-N-[4-fluoro-5-(6-morpholin-4-ylpyridin-2-yl)-2-[(3R)-3,4-dimethylpiperazin-1-yl]phenyl]-1-methyl-6-oxopyridine-3-carboxamide], the Kd was found to be 5.02 nM.
As for `CC1CN(c2cc(F)c(-c3cccc(N4CCOCC4)n3)cc2NC(=O)c2ccc(F)cc2C(F)(F)F)CCN1C` (stereo in doubt) [Example 673, 4-fluoro-N-[4-fluoro-5-(6-morpholin-4-ylpyridin-2-yl)-2-[(3R)-3,4-dimethylpiperazin-1-yl]phenyl]-2-(trifluoromethyl)benzamide], the figure is 3.18 nM; as for `CC1CN(c2cc(F)c(C3=CCN(c4ncc(C#N)s4)CC3)cc2NC(=O)c2c[nH]c(=O)cc2C(F)F)CCN1C` (stereo in doubt) [Example 686, N-[5-[1-(5-cyano-1,3-thiazol-2-yl)-3,6-dihydro-2H-pyridin-4-yl]-4-fluoro-2-[(3R)-3,4-dimethylpiperazin-1-yl]phenyl]-4-(difluoromethyl)-6-oxo-1H-pyridine-3-carboxamide], 1.99 nM.
For the compound `CC1CN(c2cc(F)c(C3=CCCN(c4ncc(C#N)s4)C3)cc2NC(=O)c2c[nH]c(=O)cc2C(F)F)CCN1C` (stereo in doubt) [Example 688, N-[5-[1-(5-cyano-1,3-thiazol-2-yl)-3,6-dihydro-2H-pyridin-5-yl]-4-fluoro-2-[(3R)-3,4-dimethylpiperazin-1-yl]phenyl]-4-(difluoromethyl)-6-oxo-1H-pyridine-3-carboxamide], the Kd came to 2.49 nM.
As for `CC1CN(c2cc(F)c(C3=CCCN(c4ncc(C#N)s4)C3)cc2NC(=O)c2ccc(F)cc2C(F)(F)F)CCN1C` (stereo in doubt) [Example 689, N-[5-[1-(5-cyano-1,3-thiazol-2-yl)-3,6-dihydro-2H-pyridin-5-yl]-4-fluoro-2-[(3R)-3,4-dimethylpiperazin-1-yl]phenyl]-4-fluoro-2-(trifluoromethyl)benzamide], the figure is 6.28 nM; as for `CC1CN(c2cc(F)c(C3=CCN(C(=O)OC4CC(F)(F)C4)CC3)cc2NC(=O)c2c[nH]c(=O)cc2C(F)F)CCN1C` (stereo in doubt) [Example 703, (3,3-difluorocyclobutyl) 4-[5-[[4-(difluoromethyl)-6-oxo-1H-pyridine-3-carbonyl]amino]-2-fluoro-4-[(3R)-3,4-dimethylpiperazin-1-yl]phenyl]-3,6-dihydro-2H-pyridine-1-carboxylate], 1.03 nM.
As for `CC1CN(c2cc(F)c(C3=CCCN(C(=O)OC4CC(F)(F)C4)C3)cc2NC(=O)c2c[nH]c(=O)cc2C(F)F)CCN1C` (stereo in doubt) [Example 705, (3,3-difluorocyclobutyl) 5-[5-[[4-(difluoromethyl)-6-oxo-1H-pyridine-3-carbonyl]amino]-2-fluoro-4-[(3R)-3,4-dimethylpiperazin-1-yl]phenyl]-3,6-dihydro-2H-pyridine-1-carboxylate], the figure is 2.02 nM.
Turning to `CC1CN(c2cc(F)c(C3=CCCN(C(=O)OC4CC(F)(F)C4)C3)cc2NC(=O)c2ccc(F)cc2C(F)(F)F)CCN1C` (stereo in doubt) [Example 706, (3,3-difluorocyclobutyl) 5-[2-fluoro-5-[[4-fluoro-2-(trifluoromethyl)benzoyl]amino]-4-[(3R)-3,4-dimethylpiperazin-1-yl]phenyl]-3,6-dihydro-2H-pyridine-1-carboxylate], the Kd stood at 3.81 nM.
On to `CC1CN(c2cc(F)c(C3=CCN(C(=O)OC4CC(F)(F)C4)CC3)cc2NC(=O)c2ccc(F)cc2C(F)(F)F)CCN1C` (stereo in doubt) [Example 707, (3,3-difluorocyclobutyl) 4-[2-fluoro-5-[[4-fluoro-2-(trifluoromethyl)benzoyl]amino]-4-[(3R)-3,4-dimethylpiperazin-1-yl]phenyl]-3,6-dihydro-2H-pyridine-1-carboxylate], for which the Kd stood at 2.16 nM.
Regarding `CC1CN(c2cc(F)c(C3=CCN(c4ccnc(C#N)n4)CC3)cc2NC(=O)c2c[nH]c(=O)cc2C(F)F)CCN1C` (stereo in doubt) [Example 708, N-[5-[1-(2-cyanopyrimidin-4-yl)-3,6-dihydro-2H-pyridin-4-yl]-4-fluoro-2-[(3R)-3,4-dimethylpiperazin-1-yl]phenyl]-4-(difluoromethyl)-6-oxo-1H-pyridine-3-carboxamide], the Kd amounted to 0.58 nM.
For `CC1CN(c2cc(F)c(-c3cnn(CCN4CCOCC4)c3)cc2NC(=O)c2c[nH]c(=O)cc2C(F)(F)F)CCN1C` (stereo in doubt) [Example 714, N-[4-fluoro-5-[1-(2-morpholin-4-ylethyl)pyrazol-4-yl]-2-[(3R)-3,4-dimethylpiperazin-1-yl]phenyl]-6-oxo-4-(trifluoromethyl)-1H-pyridine-3-carboxamide] the value was 2.76 nM.
Regarding `CC1CN(c2cc(F)c(-c3cnn(CCN4CCOCC4)c3)cc2NC(=O)c2cn(C)c(=O)cc2C(F)F)CCN1C` (stereo in doubt) [Example 715, 4-(difluoromethyl)-N-[4-fluoro-5-[1-(2-morpholin-4-ylethyl)pyrazol-4-yl]-2-[(3R)-3,4-dimethylpiperazin-1-yl]phenyl]-1-methyl-6-oxopyridine-3-carboxamide], the Kd stood at 10.9 nM.
For `CC1CN(c2cc(F)c(-c3ccnc(N4CCOCC4)n3)cc2NC(=O)c2c[nH]c(=O)cc2C(F)(F)F)CCN1C` (stereo in doubt) [Example 718, N-[4-fluoro-5-(2-morpholin-4-ylpyrimidin-4-yl)-2-[(3R)-3,4-dimethylpiperazin-1-yl]phenyl]-6-oxo-4-(trifluoromethyl)-1H-pyridine-3-carboxamide], the Kd was 1.09 nM.
Turning to `CC1CN(c2cc(F)c(-c3cccc(N4CCOCC4)n3)cc2NC(=O)c2c[nH]c(=O)cc2C(F)(F)F)CCN1C` (stereo in doubt) [Example 719, N-[4-fluoro-5-(6-morpholin-4-ylpyridin-2-yl)-2-[(3R)-3,4-dimethylpiperazin-1-yl]phenyl]-6-oxo-4-(trifluoromethyl)-1H-pyridine-3-carboxamide], the Kd is 1.18 nM.

Source of the values: patent US11319299B2, “Substituted carboxamides as inhibitors of WDR5 protein-protein binding” (PROPELLON THERAPEUTICS INC., priority 2016, dated 2022).
